Experimental data: patent US10570179B2, “Substituted urea depsipeptide analogs as activators of the CLPP endopeptidase” (priority 2016, dated 2020)
Numbered stars: 1 amine (or outer) side, 2 acyl side, 3 side chain; on linkers, the order of the positions; unused ones are H or OH. Bridge positions count the residues as written; N and C are the ends. Square brackets hold non-standard residues; d marks the D form. Peptide text beside a SMILES is read from it. * marks the point of attachment. X5 = O=C([C@@H]1C[C@@H](OP(=O)(O)O)CN1[*:1])[*:2]; Piperazine(2S-CO,4-Me) = CN1CCN[C@H](C(=O)O)C1; Phe(3,5-Me2) = Cc1cc(C)cc(C[C@H](N)C(=O)O)c1; Morpholine(3S-CO) = O=C(O)[C@@H]1COCCN1; Phe(3-Me) = Cc1cccc(C[C@H](N)C(=O)O)c1; X4 = O=C1CN([*:1])[C@H](C(=O)[*:2])CN1; NH(4-Cl-2-F-phenyl) = Fc1cc(Cl)ccc1N*; Pro(4R-Me) = C[C@H]1CN[C@H](C(=O)O)C1; Hyp = O=C(O)[C@@H]1C[C@@H](O)CN1; NH(4-Et-phenyl) = CCc1ccc(N*)cc1; NH(4-Me-phenyl) = Cc1ccc(N*)cc1; aThr = C[C@H](O)[C@H](N)C(=O)O; Pip = O=C(O)[C@@H]1CCCCN1; CO = O=C([*:1])[*:2]

Experiments:
Plasma stability assay = type: in vitro ADME, human
Method: The plasma stability property of early drug discovery compounds can influence the in vivo efficacy of the test compounds/drugs. Human and/or mouse plasma degradation is determined using multiple time points to monitor the rate of disappearance of the parent compound during incubation.
Sample preparation for plasma stability was modified from Di et al. (2005) Int. J. Pharm. 297(1-2): 110-119. A set of incubation times of 0, 3, 24, and 48 hour were used. DMSO stock solutions of test compounds were prepared at 10 mM concentration. 1.8 μL of each test compound was each added directly to 1.8 mL of human/mouse plasma to get the final concentration of 10 μM. This compound/matrix was mixed and 70 μL was transferred to 8 time points plates (each in triplicate wells). For the Time 0 plate, 210 μL of cold acetonitrile with internal standard (4 μg/mL warfarin) was added to each well and no incubation needed. For other seven time points' plate, the plate was incubated at 37° C. for required time, followed by quenching of the reaction by adding 210 μL of cold acetonitrile with internal standard (4 μg/ml warfarin) to each well. All of the plates were sealed and mixed well at 600 rpm for 10 min and were centrifuged at 4000 rpm for 20 min. The supernatants (120 μL) were transferred to analytical plates for analysis by LCMS. Conditions for Waters ACQUITY-UPLC-MS-UV system was described separately. The plasma stability was evaluated via the half-life from least-squares fit of the multiple time points based on first-order kinetics.

[1] = Plasma protein binding, rapid equilibrium dialysis; type: in vitro ADME, mouse
Method: This assay determines plasma protein binding of a drug/compound and free drug concentration in plasma using rapid equilibrium dialysis, which allow the aqueous component of plasma containing the free drug/compound through a dialysis membrane (MWCO˜8,000).
Solutions were prepared at 10 mM in DMSO. Dulbecco's phosphate buffered saline (DPBS; pH 7.4) was obtained from Invitrogen (Carlsbad, Calif.). Single-Use RED (rapid equilibrium dialysis) device was obtained from Thermo scientific (Rockford, Ill.). Human plasma was obtained from Innovative Research INC (Novi, Michigan, Ill).
Sample preparation for plasma protein binding was modified from Waters' method. (Waters et al. (2008) J. Pharm. Sci. 97(10): 4586-95). The Teflon base plate with the RED inserts (MWCO 8 K) were allowed to use without any pre-condition the membrane inserts. Human plasma was thawed and centrifuged at 1000 rpm for 2 min to remove any particulates. Each compound was prepared at 10 μM in human plasma. This was done by adding 1 μL, of drug solution (10 mM in DMSO) to 1000 μL, of human plasma (0.1% DMSO). Spiked plasma solutions (300 μL) were placed into the sample chamber (indicated by the red ring) and 500 μL, of DPBS into the adjacent chamber. The plate was sealed and incubated at 37° C. on an orbital shaker (100 rpm) for 4 hours. After incubation, the seal was removed from the RED plate and the volume of the insert confirmed—little to no volume change occurred. Aliquots (50 μL) were removed from each side of the insert and dispensed into a 96-well deep plate. An equal volume of blank plasma or DPBS was added to the required wells to create analytically identical sample matrices (matrix matching). To each sample 200 μL, of ACN containing 4 μg/mL warfarin IS was added. All of the plates were sealed and mixed well at 600 rpm for 10 min and were centrifuged at 4000 rpm for 20 min. The supernatants (120 μL) were transferred to analytical plates for analysis by LCMS. Conditions for Waters ACQUITY-UPLC-MS-UV system were described separately. The test compound concentrations were quantified in both buffer and plasma chambers via peak areas relative to the internal standard. The percentage of the test compound bound to plasma was calculated on following equations: % Free=(Concentration buffer chamber/concentration plasma chamber)×100% and % Bound=100%-% Free.

S. aureus ClpP (Sa-ClpP) = target: T1, S. aureus ClpP (Sa-ClpP) (Staphylococcus aureus, UniProt Q2G036); test: Casein-BODIPY digestion assay (ClpP activation); type: biochemical
T1 construct: made in house; host or cells: E. coli BL21 (DE3)

[2] = plasma stability half-life, human plasma, 37° C.
[3] = plasma binding, % Bound, mouse plasma

T1 sequence (Q2G036 whole entry): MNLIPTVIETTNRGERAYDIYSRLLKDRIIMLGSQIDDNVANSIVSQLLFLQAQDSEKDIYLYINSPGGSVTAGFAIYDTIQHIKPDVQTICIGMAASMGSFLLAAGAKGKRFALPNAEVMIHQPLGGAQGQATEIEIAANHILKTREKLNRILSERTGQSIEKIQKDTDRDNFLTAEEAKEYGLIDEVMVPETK

Row | SMILES | Human (hr) (Plasma stability assay; [2]) | Mouse [1, 3] | EC50 (S. aureus ClpP (Sa-ClpP)) | Human (Plasma stability assay; human, 10 μM) | Mouse ([1]; mouse, 4 h, 10 μM, pH 7.4) | Human (Plasma stability assay; [2])
1 | Cc1ccc(NC(=O)N[C@@H](Cc2cccc(C)c2)C(=O)N[C@@H]2C(=O)N3CCC[C@H]3C(=O)N3CCCC[C@H]3C(=O)N[C@@H](C)C(=O)N3C[C@H](C)C[C@H]3C(=O)O[C@H]2C)cc1 [Compound 1, (S)-3-(M-TOLYL)-2-(3-(P-TOLYL)UREIDO)-N-((2R,6S,8AS,14AS,20S,21S,23AS)-2,6,21-TRIMETHYL-5,8,14,19,23-PENTAOXOOCTADECAHYDRO-1H,5H,14H,19H-PYRIDO[2,1-I]DIPYRROLO[2,1-C:2′,1′-L][1]OXA[4,7,10,13]TETRAAZACYCLOHEXADECIN-20-YL)PROPANAMIDE] ({NH(4-Me-phenyl)-CO}-[Phe(3-Me)][aThr]P[Pip]A[Pro(4R-Me)]; ester 2-C) | >>48 hr | 98.9% | 430 ± 20 nM | – | – | –
2 | Cc1cccc(C[C@H](NC(=O)Nc2ccc(Cl)cc2F)C(=O)N[C@@H]2C(=O)N3CCC[C@H]3C(=O)N3CC(=O)NC[C@H]3C(=O)N[C@@H](C)C(=O)N3C[C@H](C)C[C@H]3C(=O)O[C@H]2C)c1 [Compound 20, (S)-2-(3-(4-CHLORO-2-FLUOROPHENYL)UREIDO)-3-(M-TOLYL)-N-((6AS,12S,13S,15AS,17R,21S,23AS)-13,17,21-TRIMETHYL-3,6,11,15,20,23-HEXAOXOOCTADECAHYDRO-2H,6H,11H,15H-PYRAZINO[2,1-I]DIPYRROLO[2,1-C:2′,1′-L][1]OXA[4,7,10,13]TETRAAZACYCLOHEXADECIN-12-YL)PROPANAMIDE] ({NH(4-Cl-2-F-phenyl)-CO}-[Phe(3-Me)][aThr]P[X4]A[Pro(4R-Me)]; ester 2-C) | – | – | 710 ± 80 nM | 14.0 h | 98.7 ± 0.1% | –
3 | CCc1ccc(NC(=O)N[C@@H](Cc2cccc(C)c2)C(=O)N[C@@H]2C(=O)N3C[C@H](O)C[C@H]3C(=O)N3CCOC[C@H]3C(=O)N[C@@H](C)C(=O)N3C[C@H](C)C[C@H]3C(=O)O[C@H]2C)cc1 [Compound 24, (S)-2-(3-(4-ETHYLPHENYL)UREIDO)-N-((6AS,8R,12S,13S,15AS,17R,21S,23AS)-8-HYDROXY-13,17,21-TRIMETHYL-6,11,15,20,23-PENTAOXOOCTADECAHYDRO-6H,11H,15H-[1,4]OXAZINO[3,4-I]DIPYRROLO[2,1-C:2′,1′-L][1]OXA[4,7,10,13]TETRAAZACYCLOHEXADECIN-12-YL)-3-(M-TOLYL)PROPANAMIDE] ({NH(4-Et-phenyl)-CO}-[Phe(3-Me)][aThr][Hyp][Morpholine(3S-CO)]A[Pro(4R-Me)]; ester 2-C) | – | – | 130 ± 40 nM | 90.86 h | 98.2 ± 0.1% | –
4 | Cc1cccc(C[C@H](NC(=O)Nc2ccc(Cl)cc2F)C(=O)N[C@H]2COC(=O)[C@@H]3C[C@@H](C)CN3C(=O)[C@H](C)NC(=O)[C@@H]3CCCCN3C(=O)[C@@H]3CCCN3C2=O)c1 [Compound 8, (S)-2-(3-(4-CHLORO-2-FLUOROPHENYL)UREIDO)-N-((2R,6S,8AS,14AS,20S,23AS)-2,6-DIMETHYL-5,8,14,19,23-PENTAOXOOCTADECAHYDRO-1H,5H,14H,19H-PYRIDO[2,1-I]DIPYRROLO[2,1-C:2′,1′-L][1]OXA[4,7,10,13]TETRAAZACYCLOHEXADECIN-20-YL)-3-(M-TOLYL)PROPANAMIDE] | – | – | 280 ± 20 nM | 34.37 h | 98.9 ± 0.4% | –
5 | Cc1cccc(C[C@H](NC(=O)Nc2ccc(Cl)cc2F)C(=O)N[C@H]2COC(=O)[C@@H]3C[C@@H](C)CN3C(=O)[C@H](C)NC(=O)[C@@H]3CN(C)CCN3C(=O)[C@@H]3CCCN3C2=O)c1 [Compound 13, (S)-2-(3-(4-CHLORO-2-FLUOROPHENYL)UREIDO)-3-(M-TOLYL)-N-((6AS,12S,15AS,17R,21S,23AS)-2,17,21-TRIMETHYL-6,11,15,20,23-PENTAOXOOCTADECAHYDRO-2H,6H,11H,15H-PYRAZINO[2,1-I]DIPYRROLO[2,1-C:2′,1′-L][1]OXA[4,7,10,13]TETRAAZACYCLOHEXADECIN-12-YL)PROPANAMIDE] ({NH(4-Cl-2-F-phenyl)-CO}-[Phe(3-Me)]SP[Piperazine(2S-CO,4-Me)]A[Pro(4R-Me)]; ester 2-C) | – | – | 1520 ± 100 nM | 67.3 ± 13.7 h | 97.5 ± 0.3% | –
6 | Cc1ccc(NC(=O)N[C@@H](Cc2cc(C)cc(C)c2)C(=O)N[C@@H]2C(=O)N3CCC[C@H]3C(=O)N3CCCC[C@H]3C(=O)N[C@@H](C)C(=O)N3C[C@H](C)C[C@H]3C(=O)O[C@H]2C)cc1 [Compound 2, (S)-3-(3,5-DIMETHYLPHENYL)-2-(3-(P-TOLYL)UREIDO)-N-((2R,6S,8AS,14AS,20S,21S,23AS)-2,6,21-TRIMETHYL-5,8,14,19,23-PENTAOXOOCTADECAHYDRO-1H,5H,14H,19H-PYRIDO[2,1-I]DIPYRROLO[2,1-C:2′,1′-L][1]OXA[4,7,10,13]TETRAAZACYCLOHEXADECIN-20-YL)PROPANAMIDE] ({NH(4-Me-phenyl)-CO}-[Phe(3,5-Me2)][aThr]P[Pip]A[Pro(4R-Me)]; ester 2-C) | >>48 hr | 99.2% | 870 ± 30 nM | – | – | –
7 | Cc1cccc(C[C@H](NC(=O)Nc2ccc(Cl)cc2F)C(=O)N[C@@H]2C(=O)N3C[C@H](O)C[C@H]3C(=O)N3CCN(C)C[C@H]3C(=O)N[C@@H](C)C(=O)N3C[C@H](C)C[C@H]3C(=O)O[C@H]2C)c1 [Compound 31, (S)-2-(3-(4-CHLORO-2-FLUOROPHENYL)UREIDO)-N-((6AS,8R,12S,13S,15AS,17R,21S,23AS)-8-HYDROXY-2,13,17,21-TETRAMETHYL-6,11,15,20,23-PENTAOXOOCTADECAHYDRO-2H,6H,11H,15H-PYRAZINO[2,1-I]DIPYRROLO[2,1-C:2′,1′-L][1]OXA[4,7,10,13]TETRAAZACYCLOHEXADECIN-12-YL)-3-(M-TOLYL)PROPANAMIDE] ({NH(4-Cl-2-F-phenyl)-CO}-[Phe(3-Me)][aThr][Hyp][Piperazine(2S-CO,4-Me)]A[Pro(4R-Me)]; ester 2-C) | – | – | 180 ± 180 nM | >50 h | 96.9 ± 6.9% | –
8 | CCc1ccc(NC(=O)N[C@@H](Cc2cccc(C)c2)C(=O)N[C@@H]2C(=O)N3C[C@H](O)C[C@H]3C(=O)N3CCCC[C@H]3C(=O)N[C@@H](C)C(=O)N3C[C@H](C)C[C@H]3C(=O)O[C@H]2C)cc1 [Compound 25, (S)-2-(3-(4-ETHYLPHENYL)UREIDO)-N-((2R,6S,8AS,14AS,16R,20S,21S,23AS)-16-HYDROXY-2,6,21-TRIMETHYL-5,8,14,19,23-PENTAOXOOCTADECAHYDRO-1H,5H,14H,19H-PYRIDO[2,1-I]DIPYRROLO[2,1-C:2′,1′-L][1]OXA[4,7,10,13]TETRAAZACYCLOHEXADECIN-20-YL)-3-(M-TOLYL)PROPANAMIDE] ({NH(4-Et-phenyl)-CO}-[Phe(3-Me)][aThr][Hyp][Pip]A[Pro(4R-Me)]; ester 2-C) | – | – | 410 ± 20 nM | >50 h | 99.5 ± 0.11% | –
9 | Cc1cccc(C[C@H](NC(=O)Nc2ccc(Cl)cc2F)C(=O)N[C@@H]2C(=O)N3C[C@H](OP(=O)(O)O)C[C@H]3C(=O)N3CCCC[C@H]3C(=O)N[C@@H](C)C(=O)N3C[C@H](C)C[C@H]3C(=O)O[C@H]2C)c1 [Compound 29, (2R,6S,8AS,14AS,16R,20S,21S,23AS)-20-((S)-2-(3-(4-CHLORO-2-FLUOROPHENYL)UREIDO)-3-(M-TOLYL)PROPANAMIDO)-2,6,21-TRIMETHYL-5,8,14,19,23-PENTAOXOOCTADECAHYDRO-1H,5H,14H,19H-PYRIDO[2,1-I]DIPYRROLO[2,1-C:2′,1′-L][1]OXA[4,7,10,13]TETRAAZACYCLOHEXADECIN-16-YL DIHYDROGEN PHOSPHATE] ({NH(4-Cl-2-F-phenyl)-CO}-[Phe(3-Me)][aThr][X5][Pip]A[Pro(4R-Me)]; ester 2-C) | – | 96.9 ± 6.9% | 240 ± 240 nM | – | – | >50 h
